Where a name gives a salt, the structure may show the parent alone. Read-outs that look alike come from different tables or passages of the source.
Experiments:
[1] = Phase I single-ascending dose (SAD) pharmacokinetics incl. food effect, plasma concentration of the Compound; assay type: in vivo, human; settings: for half-life / AUC(0-inf) / AUC(0-t) / Cmax / Tmax: human, plasma
Description: (§1) A phase I randomized, double-blind, placebo-controlled, adaptive-design, single-ascending dose (SAD) and multiple-ascending dose (MAD) study was conducted in healthy human subjects to evaluate the safety, tolerability, pharmacokinetics (PK), pharmacodynamics (PD), food effect, and optimal oral dose of 3-((1-cyclohexyl-4-oxo-8-(4-oxo-4-phenylbutyl)-1,3,8-triazaspiro[4.5]decan-3-yl)methyl)benzoic acid maleate (hereinafter, “the Maleate Salt”). The SAD phase included an arm to evaluate food effect on the PK of the Maleate Salt. The SAD phase also evaluated the effect of the Maleate Salt on ECG parameters, including an assessment of QT-interval changes using exposure-response analysis.
(§2) The Maleate Salt was formulated in the study as immediate-release, hard gelatin capsules for oral administration. Each capsule contained 5 mg or 25 mg of the Maleate Salt, as well as microcrystalline cellulose NF (AVICEL® PH-102), sodium starch glycolate NF (EXPLOTAB®), and magnesium stearate NF, all filled into a size 3 hard gelatin capsule. A matching placebo containing the same amount of microcrystalline cellulose NF in place of the Maleate Salt was used in the study. The Maleate Salt capsules and matching placebo capsules were packaged in high-density polyethylene (HDPE) bottles with polypropylene caps and stored at controlled conditions per the USP.
(§3) A total of 54 subjects received at least 1 dose of the Maleate Salt, ranging from 5 mg to the maximum single PO dose of 300 mg. Six subjects received a maximum single PO dose of 300 mg and 5 subjects received a total of 900 mg of the Maleate Salt over 5-day period (100 mg BID for 4 days with single 100 mg on Day 5).
The SAD phase had 7 cohorts dosed at 5 mg (cohort 1), 10 mg (cohort 2), 25 mg (cohort 3), 50 mg (cohort 4), 100 mg (cohort 5), 200 mg (cohort 6), and 300 mg (cohort 7) of the Maleate Salt. In each cohort, there were 6 active- and 2 placebo-treated subjects. Subjects were administered the Maleate Salt in the fasting state with 1 exception: subjects in the 25 mg cohort (cohort 3) received the Maleate Salt while fasting and again after a high-fat breakfast to determine food effect on PK.
Mean plasma concentration-time profiles for 3-((1-cyclohexyl-4-oxo-8-(4-oxo-4-phenylbutyl)-1,3,8-triazaspiro[4.5]decan-3-yl)methyl)benzoic acid (hereinafter, “the Compound”) following a single PO dose of the Maleate Salt are shown in FIG. 1.
In evaluating food effect on the PK of the Maleate Salt, subjects on Day 1 in cohort 3 were administered a single dose of the Maleate Salt at 25 mg or placebo in the fasted state. On Day 3, the same subjects received an identical dose 30 minutes after consumption of a standardized, high-fat, high-calorie breakfast.

[2] = Phase I multiple-ascending dose (MAD) pharmacokinetics, BID Days 1-4 and single morning dose Day 5; assay type: in vivo, human; settings: for Tlast / Cmax / Tmax / half-life / AUC / concentration at 12 h / concentration at 24 h: fasting; for Cav, ss / Cmin / Tmin / AI: steady state; for AI: Day 5, mean; for Cmax / Tmax / half-life / AUC / concentration at 12 h / concentration at 24 h: human, plasma; for Cmax / Tmax / half-life / AUC: po; for AUC: read-out: AUC12; for concentration at 12 h / concentration at 24 h: read-out: Clast
Description: as §1, §2, §3
The MAD phase had 2 cohorts dosed at 50 and 100 mg of the Maleate Salt. In each cohort, there were 6 active- and 2 placebo-treated subjects. The Maleate Salt was administered to fasting subjects BID (morning and evening) on Days 1 through 4 and as a single morning dose on Day 5.
On Day 1, mean T1/2 was approximately 2 h for both 50 and 100 mg BID doses. On Day 5, mean T1/2 was 11.0 and 6.2 h following 50 and 100 mg BID doses, respectively. For T1/2 determination, the plasma samples for Day 1 were only collected to 12 h, whereas the plasma samples for Day 5 were collected to 24 h.

[3] = po, 5 mg, single PO dose 5 mg, fasted, healthy subjects
[4] = po, 10 mg, single PO dose 10 mg, fasted, healthy subjects
[5] = po, 25 mg, single PO dose 25 mg, fasted, healthy subjects
[6] = po, 25 mg, single PO dose 25 mg, fed (high-fat breakfast), healthy subjects
[7] = po, 50 mg, single PO dose 50 mg, fasted, healthy subjects
[8] = po, 100 mg, single PO dose 100 mg, fasted, healthy subjects
[9] = po, 200 mg, single PO dose 200 mg, fasted, healthy subjects
[10] = po, 300 mg, single PO dose 300 mg, fasted, healthy subjects

Structure (SMILES): O=C(O)c1cccc(CN2CN(C3CCCCC3)C3(CCN(CCCC(=O)c4ccccc4)CC3)C2=O)c1 [the Maleate Salt, 3-((1-cyclohexyl-4-oxo-8-(4-oxo-4-phenylbutyl)-1,3,8-triazaspiro[4.5]decan-3-yl)methyl)benzoic acid maleate]
- Food effect on Tmax ([1]; 25 mg single dose, high-fat meal prior to dosing vs fasted): did not alter Tmax
- Exposure versus dose administered ([1]; SAD phase, fasted conditions, 5-300 mg): approximately proportional to the dose administered
- half-life ([1]; oral, across all cohorts in the SAD phase, read-out: Arithmetic mean T1/2 in fasted subjects (converted)): ~4 h
- AUC(0-inf) [1, 3]: 4.5 ng·h/mL
- AUC(0-t) [1, 3]: 4.3 ng·h/mL
- Cmax [1, 3]: 2.1 ng/mL
- half-life ([1]; po, 5 mg, single PO dose 5 mg, fasted, healthy subjects, read-out: T1/2 (converted)): ~1.6 h
- Tmax ([1]; po, 5 mg, single PO dose 5 mg, fasted, healthy subjects, read-out: Tmax): 0.83 h
- AUC(0-inf) [1, 4]: 13.1 ng·h/mL
- AUC(0-t) [1, 4]: 12.9 ng·h/mL
- Cmax [1, 4]: 6.2 ng/mL
- half-life ([1]; po, 10 mg, single PO dose 10 mg, fasted, healthy subjects, read-out: T1/2 (converted)): ~1.6 h
- Tmax ([1]; po, 10 mg, single PO dose 10 mg, fasted, healthy subjects, read-out: Tmax): 1.21 h
- AUC(0-inf) [1, 5]: 30.4 ng·h/mL
- AUC(0-t) [1, 5]: 30.5 ng·h/mL
- Cmax [1, 5]: 10.5 ng/mL
- half-life ([1]; po, 25 mg, single PO dose 25 mg, fasted, healthy subjects, read-out: T1/2 (converted)): 6 h
- Tmax ([1]; po, 25 mg, single PO dose 25 mg, fasted, healthy subjects, read-out: Tmax): 1.8 h
- AUC(0-inf) [1, 6]: 17.2 ng·h/mL
- AUC(0-t) [1, 6]: 17.6 ng·h/mL
- Cmax [1, 6]: 6.7 ng/mL
- half-life ([1]; po, 25 mg, single PO dose 25 mg, fed (high-fat breakfast), healthy subjects, read-out: T1/2 (converted)): 7 h
- Tmax ([1]; po, 25 mg, single PO dose 25 mg, fed (high-fat breakfast), healthy subjects, read-out: Tmax): 2.2 h
- AUC(0-inf) [1, 7]: 56.7 ng·h/mL
- AUC(0-t) [1, 7]: 53.2 ng·h/mL
- Cmax [1, 7]: 22 ng/mL
- half-life ([1]; po, 50 mg, single PO dose 50 mg, fasted, healthy subjects, read-out: T1/2 (converted)): 3.1 h
- Tmax ([1]; po, 50 mg, single PO dose 50 mg, fasted, healthy subjects, read-out: Tmax): 1.04 h
- AUC(0-inf) [1, 8]: 180 ng·h/mL
- AUC(0-t) [1, 8]: 104 ng·h/mL
- Cmax [1, 8]: 48.3 ng/mL
- half-life ([1]; po, 100 mg, single PO dose 100 mg, fasted, healthy subjects, read-out: T1/2 (converted)): 5.4 h
- Tmax ([1]; po, 100 mg, single PO dose 100 mg, fasted, healthy subjects, read-out: Tmax): 1.78 h
- AUC(0-inf) [1, 9]: 242 ng·h/mL
- AUC(0-t) [1, 9]: 240 ng·h/mL
- Cmax [1, 9]: 106 ng/mL
- half-life ([1]; po, 200 mg, single PO dose 200 mg, fasted, healthy subjects, read-out: T1/2 (converted)): 5.4 h
- Tmax ([1]; po, 200 mg, single PO dose 200 mg, fasted, healthy subjects, read-out: Tmax): 1.24 h
- AUC(0-inf) [1, 10]: 446 ng·h/mL
- AUC(0-t) [1, 10]: 421 ng·h/mL
- Cmax [1, 10]: 192 ng/mL
- half-life ([1]; po, 300 mg, single PO dose 300 mg, fasted, healthy subjects, read-out: T1/2 (converted)): 5.1 h
- Tmax ([1]; po, 300 mg, single PO dose 300 mg, fasted, healthy subjects, read-out: Tmax): 1.88 h
- half-life ([1]; po, 25 to 300 mg dose levels, single PO dose, read-out: Arithmetic mean T1/2 in fasted subjects (converted)): 3.1 to 6 h
- Tmax ([1]; po, SAD phase, single PO doses, read-out: Median Tmax): ~1.1 h
- Tlast ([2]; 50 mg BID PO, Day 1): 12.0 h
- Tlast ([2]; 50 mg BID PO, Day 5): 24.0 h
- Cav, ss ([2]; 50 mg BID PO, Day 5): 4.84 ng/mL
- Cmin ([2]; 50 mg BID PO, Day 5): 0.32 ng/mL
- Tmin ([2]; 50 mg BID PO, Day 5): 8.0 h
- AI ([2]; 50 mg BID PO): 1.89
- Tlast ([2]; 100 mg BID PO, Day 1): 12.0 h
- Tlast ([2]; 100 mg BID PO, Day 5): 24.0 h
- Cav, ss ([2]; 100 mg BID PO, Day 5): 16.71 ng/mL
- Cmin ([2]; 100 mg BID PO, Day 5): 0.65 ng/mL
- Tmin ([2]; 100 mg BID PO, Day 5): 4.8 h
- AI ([2]; 100 mg BID PO): 1.38
- Accumulation for AUC12 ([2]; 50 or 100 mg BID dosing): less than 30%
- Accumulation for Cmax ([2]; 50 or 100 mg BID dosing): less than 40%
- Cmax ([2]; 50 mg, 50 mg BID PO, Day 1): 23.3 ng/mL
- Tmax ([2]; 50 mg, 50 mg BID PO, Day 1): 1.55 h
- half-life ([2]; 50 mg, 50 mg BID PO, Day 1 (samples collected to 12 h)): ~2 h
- AUC ([2]; 50 mg, 50 mg BID PO, Day 1): 53.6 ng·h/mL
- Cmax ([2]; 50 mg, 50 mg BID PO, Day 5): 31.2 ng/mL
- Tmax ([2]; 50 mg, 50 mg BID PO, Day 5): 1.17 h
- half-life ([2]; 50 mg, 50 mg BID PO, Day 5 (samples collected to 24 h)): 11 h
- AUC ([2]; 50 mg, 50 mg BID PO, Day 5): 58.1 ng·h/mL
- Cmax ([2]; 100 mg, 100 mg BID PO, Day 1): 71.5 ng/mL
- Tmax ([2]; 100 mg, 100 mg BID PO, Day 1): 1.03 h
- half-life ([2]; 100 mg, 100 mg BID PO, Day 1 (samples collected to 12 h)): ~2 h
- AUC ([2]; 100 mg, 100 mg BID PO, Day 1): 152 ng·h/mL
- Cmax ([2]; 100 mg, 100 mg BID PO, Day 5): 71.6 ng/mL
- Tmax ([2]; 100 mg, 100 mg BID PO, Day 5): 1.53 h
- half-life ([2]; 100 mg, 100 mg BID PO, Day 5 (samples collected to 24 h)): 6.2 h
- AUC ([2]; 100 mg, 100 mg BID PO, Day 5): 200 ng·h/mL
- concentration at 12 h ([2]; 50 mg BID PO, Day 1): 0.2 ng/mL
- concentration at 24 h ([2]; 50 mg BID PO, Day 5): 0.18 ng/mL
- concentration at 12 h ([2]; 100 mg BID PO, Day 1): 0.42 ng/mL
- concentration at 24 h ([2]; 100 mg BID PO, Day 5): 0.28 ng/mL
